In PMC6199744, “Development of Chemical Proteomics for the Folateome and Analysis of the Kinetoplastid Folateome” (ACS Infectious Diseases, 2018):
Like-named read-outs stand apart in the source and are kept apart here.

Experiments:
Format in all cases: binding
[1] = target: T1, HeLa cell extract proteins (Homo sapiens, UniProt Q99832)
T1 construct: endogenous in cells; host or cells: HeLa cell extract
T1 sequence (Q99832 1-543): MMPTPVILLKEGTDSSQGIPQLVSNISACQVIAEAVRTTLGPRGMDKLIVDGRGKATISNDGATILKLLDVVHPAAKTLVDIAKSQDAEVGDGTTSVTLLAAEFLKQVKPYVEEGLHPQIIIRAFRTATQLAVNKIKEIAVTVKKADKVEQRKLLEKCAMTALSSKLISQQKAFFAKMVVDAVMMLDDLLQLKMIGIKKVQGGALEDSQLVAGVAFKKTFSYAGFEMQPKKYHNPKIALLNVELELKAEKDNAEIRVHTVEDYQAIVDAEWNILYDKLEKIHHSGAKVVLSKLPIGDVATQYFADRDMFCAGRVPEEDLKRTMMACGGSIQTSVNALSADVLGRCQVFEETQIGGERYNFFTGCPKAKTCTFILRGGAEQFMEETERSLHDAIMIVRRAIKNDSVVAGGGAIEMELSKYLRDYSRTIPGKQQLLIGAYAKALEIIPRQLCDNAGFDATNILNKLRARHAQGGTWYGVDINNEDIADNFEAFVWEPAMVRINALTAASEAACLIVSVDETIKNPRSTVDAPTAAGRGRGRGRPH

[2] = target: T2, HeLa cell extract proteins (Homo sapiens, UniProt P32929)
T2 construct: endogenous in cells; host or cells: HeLa cell extract
T2 sequence (P32929 whole entry): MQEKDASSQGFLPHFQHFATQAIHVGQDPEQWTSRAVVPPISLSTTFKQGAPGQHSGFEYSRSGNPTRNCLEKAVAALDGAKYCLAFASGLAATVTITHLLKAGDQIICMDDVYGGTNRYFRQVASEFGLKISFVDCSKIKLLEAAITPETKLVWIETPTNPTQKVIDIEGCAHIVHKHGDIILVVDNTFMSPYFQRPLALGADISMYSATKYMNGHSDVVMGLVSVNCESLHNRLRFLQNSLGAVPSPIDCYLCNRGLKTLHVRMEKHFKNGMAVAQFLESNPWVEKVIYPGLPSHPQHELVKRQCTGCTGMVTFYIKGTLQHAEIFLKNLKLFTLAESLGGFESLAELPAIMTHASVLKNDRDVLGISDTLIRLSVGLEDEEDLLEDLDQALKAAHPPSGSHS

[3] = target: T3, HeLa cell extract proteins (Homo sapiens, UniProt Q03393)
T3 construct: endogenous in cells; host or cells: HeLa cell extract
T3 sequence (Q03393 1-145): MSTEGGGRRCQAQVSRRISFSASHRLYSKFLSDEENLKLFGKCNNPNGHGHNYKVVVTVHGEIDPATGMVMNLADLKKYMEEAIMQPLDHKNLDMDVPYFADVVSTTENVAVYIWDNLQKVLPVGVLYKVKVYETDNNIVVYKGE

[4] = target: T4, HeLa cell extract proteins (Homo sapiens, UniProt P17980)
T4 construct: endogenous in cells; host or cells: HeLa cell extract
T4 sequence (P17980 whole entry): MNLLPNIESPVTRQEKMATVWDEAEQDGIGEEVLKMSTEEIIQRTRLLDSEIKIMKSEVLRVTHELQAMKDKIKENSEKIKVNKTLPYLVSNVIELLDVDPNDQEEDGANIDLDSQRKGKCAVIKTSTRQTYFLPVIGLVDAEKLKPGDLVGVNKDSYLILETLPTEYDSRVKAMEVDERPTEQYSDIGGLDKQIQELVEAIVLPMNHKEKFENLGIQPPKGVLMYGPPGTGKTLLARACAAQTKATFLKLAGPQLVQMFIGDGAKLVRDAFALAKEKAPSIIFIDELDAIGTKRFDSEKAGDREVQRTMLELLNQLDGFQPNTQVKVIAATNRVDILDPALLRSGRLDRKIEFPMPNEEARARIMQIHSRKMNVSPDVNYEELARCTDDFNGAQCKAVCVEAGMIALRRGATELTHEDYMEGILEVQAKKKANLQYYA

[5] = target: T5, HeLa cell extract proteins (Homo sapiens, UniProt P28066)
T5 construct: endogenous in cells; host or cells: HeLa cell extract
T5 sequence (P28066 1-241): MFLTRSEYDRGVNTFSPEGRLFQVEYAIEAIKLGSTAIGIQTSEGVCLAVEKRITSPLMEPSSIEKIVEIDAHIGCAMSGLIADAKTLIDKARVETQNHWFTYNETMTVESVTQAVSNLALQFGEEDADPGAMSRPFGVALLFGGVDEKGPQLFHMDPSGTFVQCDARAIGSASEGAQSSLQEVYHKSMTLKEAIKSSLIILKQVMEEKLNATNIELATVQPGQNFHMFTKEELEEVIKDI

[6] = target: T6, HeLa cell extract proteins (Homo sapiens, UniProt O00764)
T6 construct: endogenous in cells; host or cells: HeLa cell extract
T6 sequence (O00764 1-312): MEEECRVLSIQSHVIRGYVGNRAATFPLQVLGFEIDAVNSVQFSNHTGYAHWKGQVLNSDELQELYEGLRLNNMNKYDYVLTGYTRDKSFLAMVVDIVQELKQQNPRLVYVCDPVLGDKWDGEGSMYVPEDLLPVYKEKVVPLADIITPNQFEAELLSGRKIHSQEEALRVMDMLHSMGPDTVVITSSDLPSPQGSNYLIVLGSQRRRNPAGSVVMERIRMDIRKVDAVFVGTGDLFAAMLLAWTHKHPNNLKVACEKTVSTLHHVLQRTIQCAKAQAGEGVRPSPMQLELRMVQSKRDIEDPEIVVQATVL

[7] = target: T7, HeLa cell extract proteins (Homo sapiens, UniProt P35080)
T7 construct: endogenous in cells; host or cells: HeLa cell extract
T7 sequence (P35080 1-140): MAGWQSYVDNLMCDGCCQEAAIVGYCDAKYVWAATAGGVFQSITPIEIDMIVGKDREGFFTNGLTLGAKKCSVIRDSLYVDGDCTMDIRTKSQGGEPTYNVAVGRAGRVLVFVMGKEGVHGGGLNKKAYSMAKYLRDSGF

[8] = target: T8, HeLa cell extract proteins (Homo sapiens, UniProt P31942)
T8 construct: endogenous in cells; host or cells: HeLa cell extract
T8 sequence (P31942 1-346): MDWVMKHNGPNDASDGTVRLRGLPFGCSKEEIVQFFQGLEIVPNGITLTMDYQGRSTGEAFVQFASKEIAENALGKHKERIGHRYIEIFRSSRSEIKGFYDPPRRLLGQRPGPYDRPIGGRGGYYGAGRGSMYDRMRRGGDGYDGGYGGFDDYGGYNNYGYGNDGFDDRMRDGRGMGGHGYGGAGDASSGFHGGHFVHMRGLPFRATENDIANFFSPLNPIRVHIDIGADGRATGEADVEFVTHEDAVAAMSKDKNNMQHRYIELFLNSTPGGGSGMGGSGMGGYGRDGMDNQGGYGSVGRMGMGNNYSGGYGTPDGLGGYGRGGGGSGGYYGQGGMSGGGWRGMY

[9] = target: T9, HeLa cell extract proteins (Homo sapiens, UniProt Q9H0N5)
T9 construct: endogenous in cells; host or cells: HeLa cell extract
T9 sequence (Q9H0N5 whole entry): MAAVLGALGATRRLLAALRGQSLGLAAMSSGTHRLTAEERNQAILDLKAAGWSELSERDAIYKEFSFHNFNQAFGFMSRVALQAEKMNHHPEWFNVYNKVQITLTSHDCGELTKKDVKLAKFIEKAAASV

[10] = target: T10, HeLa cell extract proteins (Homo sapiens, UniProt Q7L1Q6)
T10 construct: endogenous in cells; host or cells: HeLa cell extract
T10 sequence (Q7L1Q6 1-419): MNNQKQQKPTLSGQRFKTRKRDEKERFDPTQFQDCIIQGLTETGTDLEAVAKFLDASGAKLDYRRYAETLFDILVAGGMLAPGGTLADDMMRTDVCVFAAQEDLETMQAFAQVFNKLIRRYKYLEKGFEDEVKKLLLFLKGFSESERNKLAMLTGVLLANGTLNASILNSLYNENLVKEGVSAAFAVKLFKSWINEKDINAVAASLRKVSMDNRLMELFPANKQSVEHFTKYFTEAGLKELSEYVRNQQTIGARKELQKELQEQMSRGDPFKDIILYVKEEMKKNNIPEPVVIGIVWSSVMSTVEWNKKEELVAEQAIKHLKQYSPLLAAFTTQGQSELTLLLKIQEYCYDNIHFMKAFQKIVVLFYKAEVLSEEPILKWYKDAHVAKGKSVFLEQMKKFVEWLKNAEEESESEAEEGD

[11] = target: T11, HeLa cell extract proteins (Homo sapiens, UniProt P27707)
T11 construct: endogenous in cells; host or cells: HeLa cell extract
T11 sequence (P27707 whole entry): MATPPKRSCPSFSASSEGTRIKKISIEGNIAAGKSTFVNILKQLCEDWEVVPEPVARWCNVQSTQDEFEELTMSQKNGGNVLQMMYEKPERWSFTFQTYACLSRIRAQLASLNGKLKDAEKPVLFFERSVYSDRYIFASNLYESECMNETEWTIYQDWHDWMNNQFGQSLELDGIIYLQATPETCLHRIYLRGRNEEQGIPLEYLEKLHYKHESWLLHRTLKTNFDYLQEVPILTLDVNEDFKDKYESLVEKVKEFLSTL

[12] = target: T12, HeLa cell extract proteins (Homo sapiens, UniProt P52907)
T12 construct: endogenous in cells; host or cells: HeLa cell extract

Row | Compound | fold changes relative to vehicle control ([1]; HeLa, protein CCT7) | fold changes relative to vehicle control ([2]; protein CTH, HeLa) | fold changes relative to vehicle control ([3]; protein PTS, HeLa) | fold changes relative to vehicle control ([4]; protein PSMC3, HeLa) | fold changes relative to vehicle control ([5]; HeLa, captured protein PSMA5) | fold changes relative to vehicle control ([6]; protein PDXK, HeLa) | fold changes relative to vehicle control ([7]; HeLa, protein PFN2) | fold changes relative to vehicle control ([8]; HeLa, captured protein HNRNPH3) | fold changes relative to vehicle control ([9]; HeLa, captured protein PCBD2) | fold changes relative to vehicle control ([10]; HeLa, protein BZW1) | fold changes relative to vehicle control ([12]; HeLa, protein CAPZA1) | fold changes relative to vehicle control ([1]; protein CCT7, HeLa) | fold changes relative to vehicle control ([3]; captured protein PTS, HeLa) | fold changes relative to vehicle control ([5]; HeLa, protein PSMA5) | fold changes relative to vehicle control ([6]; HeLa, protein PDXK) | fold changes relative to vehicle control ([7]; protein PFN2, HeLa) | fold changes relative to vehicle control ([8]; protein HNRNPH3, HeLa) | fold changes relative to vehicle control ([9]; captured protein PCBD2, HeLa) | fold changes relative to vehicle control ([10]; protein BZW1, HeLa) | fold changes relative to vehicle control ([11]; protein DCK, HeLa) | also measured
1 | Nc1nc2c(c(=O)[nH]1)N(C=O)C(CNc1ccc(C(=O)N[C@@H](CCC(=O)O)C(=O)O)cc1)CN2 (stereo partly drawn) [LEU, leucovorin] | 1.01 | 0.82 | 0.83 | 1.02 | 1.03 | 1.09 | 1.07 | 0.94 | 1.14 | 1.01 | 0.89 | – | – | – | – | – | – | – | – | – | fold changes relative to vehicle control ([11]; HeLa, protein DCK (DEO[…])): 1.12
2 | Nc1nc2[nH]cc(CCc3ccc(C(=O)N[C@@H](CCC(=O)O)C(=O)O)cc3)c2c(=O)[nH]1 [PTX, pemetrexed] | – | – | – | – | – | – | – | – | – | – | – | – | – | – | – | – | – | – | – | – | fold changes relative to vehicle control [1]: 1.01; fold changes relative to vehicle control [2]: 0.85; fold changes relative to vehicle control [3]: 0.23; fold changes relative to vehicle control [4]: 1; fold changes relative to vehicle control [5]: 1.04; fold changes relative to vehicle control [6]: 0.83; fold changes relative to vehicle control [7]: 1.01; fold changes relative to vehicle control [8]: 0.94; fold changes relative to vehicle control [9]: 0.99; fold changes relative to vehicle control [10]: 1.09; fold changes relative to vehicle control [11]: 1; fold changes relative to vehicle control [12]: 1.02
3 | CCCCCCOc1ccc(Cc2cnc(N)nc2N)cc1 [compound 1] | – | 0.86 | – | 1.24 | – | – | – | – | – | – | – | 1.08 | 0.72 | 1.05 | 1.03 | 1.23 | 1.08 | 0.88 | 1.09 | 0.98 | fold changes relative to vehicle control ([12]; protein CAPZA1, HeLa): 1.13
4 | CCCCCCOc1cccc(Cc2cnc(N)nc2N)c1 [compound 2] | – | 1.43 | – | 1.46 | – | – | – | – | – | – | – | 1.62 | 1.01 | 1.19 | 0.97 | 0.99 | 0.97 | 0.77 | 1.52 | 0.9 | fold changes relative to vehicle control ([12]; protein CAPZA1, HeLa): 1.32
5 | Nc1nc2cccc(-c3ccccc3)c2n1Cc1ccc(Cl)c(Cl)c1 [compound 3] | – | 0.91 | – | 1.03 | – | – | – | – | – | – | – | 0.98 | 1.1 | 1 | 0.9 | 1.1 | 1.09 | 1 | 0.91 | 1.01 | fold changes relative to vehicle control ([12]; protein CAPZA1, HeLa): 1.15
6 | NCCOCCOCC(=O)Nc1nc2ncc(CNc3ccc(C(=O)NC(CCC(=O)O)C(=O)O)cc3)nc2c(=O)[nH]1 (stereo not drawn) [compound 6] | 1.2 | 0.95 | 0.39 | 1.17 | 1.08 | 0.87 | 1.06 | 0.99 | 1.02 | 1.21 | 1.11 | – | – | – | – | – | – | – | – | – | fold changes relative to vehicle control ([11]; HeLa, protein DCK (DEOXYCYTIDINE KINASE)): 0.93
7 | NCCCNc1ccc(C(=O)NC(CCC(=O)O)C(=O)O)cc1 (stereo not drawn) [compound 7] | 1.11 | 0.87 | 1.03 | 1.03 | 0.99 | 1.03 | 1.15 | 1.01 | 1.14 | 0.98 | 1.09 | – | – | – | – | – | – | – | – | – | fold changes relative to vehicle control ([11]; HeLa, protein DCK (DEO[…])): 1.04
